Data as given in PubChem BioAssay (NCI).
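Where inhibition never reached the appropriate level, the endpoint shown equals the highest concentration tested. Otherwise, values were interpolated linearly from a five-concentration, 48-hour dose response in 96-well plates. TGI is the concentration that stops growth completely.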

Tests used:
Experiment in all cases: NCI tumour cell line growth inhibition, 48 h
[1] = test system: SNB-78 CNS
[2] = test system: HCT-15 colon
[3] = test system: UACC-257 melanoma
[4] = test system: DLD-1 colon
[5] = test system: NCI-H23 lung
[6] = test system: DMS 114 small cell lung
[7] = test system: HCT-116 colon
[8] = test system: A498 renal
[9] = test system: HT29 colon
[10] = test system: SK-OV-3 ovarian
[11] = test system: TK-10 renal
[12] = test system: M19-MEL melanoma
[13] = test system: NCI-H226 lung

Row | SMILES | TGI [1] [µM] | TGI [2] [µM] | TGI [3] [µM] | TGI [4] [µM] | TGI [5] [µM] | TGI [6] [µM] | TGI [7] [µM] | TGI [8] [µM] | TGI [9] [µM] | TGI [10] [µM] | TGI [11] [µM] | TGI [12] [µM] | TGI [13] [µM]
1 | CCOC(OCC)C(CC)[Se]c1ccccc1 (stereo unspecified) | > 100 | 35 | > 100 | > 100 | 73.9 | 8.89 | > 100 | > 100 | > 100 | > 100 | > 100 | > 100 | > 100
2 | Cn1cnc(SC2=C3C(=O)C=C4S[C@H]5C[C@]42c2c(c(O)c4c6c2=[N+]3CCC=6C=N4)N5)c1CC(N)C(=O)O (stereo partly specified) | 40.9 | > 100 | 29.9 | 31.4 | 23.8 | 6.11 | 13.3 | 36.5 | 17.1 | 52.8 | > 100 | 21.5 | 36.5
